Test results published in ChEMBL document CHEMBL1137838, “Synthesis and structure-activity relationships of andrographolide analogues as novel cytotoxic agents” (2004).

Columns and labels:
Type in all cases: functional
SK-OV-3 = assay: Concentration causing 50% inhibition of cancer cell growth against human ovarian SKOV3 cell line
U-251 = assay: Concentration causing 50% inhibition of cancer cell growth against human CNS U251 cell line
NCI-H522 = assay: Concentration causing 50% inhibition of cancer cell growth against human lung H522 cell line
SW-620 = assay: Concentration causing 50% inhibition of cancer cell growth against human colon SW620 cell line
DU-145 = assay: Concentration causing 50% inhibition of cancer cell growth against human prostate DU145 cell line
A498 = assay: Concentration causing 50% inhibition of cancer cell growth against human renal A498 cell line
NCI/ADR-RES = assay: Concentration causing 50% inhibition of cancer cell growth against human breast MCF-7/ADR cell line

Row | SMILES | IG50 (SK-OV-3) [µM] | IG50 (U-251) [µM] | IG50 (NCI-H522) [µM] | IG50 (SW-620) [µM] | IG50 (DU-145) [µM] | IG50 (A498) [µM] | IG50 (NCI/ADR-RES) [µM]
1 | CC(=O)OC[C@@]1(C)[C@H]2CC[C@@H](C=O)[C@@H](C/C=C3/C(=O)OC[C@H]3OC(C)=O)[C@]2(C)CC[C@H]1OC(C)=O | 3 | 62 | 34 | 32 | 12 | – | –
2 | C=C1CC[C@@H]2[C@](C)(CO)[C@H](O)CC[C@@]2(C)[C@@H]1C/C=C(/C(=O)O)[C@H](O)CO | >100 | >100 | 80 | >100 | >100 | 4 | 30
3 | CCC(=O)OC[C@@]1(C)[C@H]2CC[C@@]3(CO3)[C@@H](C/C=C3/C(=O)OC[C@H]3OC(=O)/C=C/c3ccc(OC)cc3)[C@]2(C)CC[C@H]1OC(=O)CC | 2 | 3 | 4.8 | 0.6 | 2 | 3 | 3
4 | CC(=O)OC[C@@]1(C)[C@H]2CC[C@@]3(CO3)[C@@H](C/C=C3/C(=O)OC[C@H]3O)[C@]2(C)CC[C@H]1OC(C)=O | >100 | 40 | – | 20 | – | 20 | 30
5 | CC(=O)O[C@@H]1CC[C@]2(C)[C@H](CC[C@@]3(CO3)[C@H]2C/C=C2/C(=O)OC[C@H]2O)[C@]1(C)CO | 50 | 45 | 60 | >100 | 50 | 20 | 20
6 | CC(C)(C)OC(=O)NCC(=O)O[C@@H]1COC(=O)/C1=C/C[C@@H]1[C@@]2(CC[C@@H]3[C@](C)(CO)[C@H](O)CC[C@]31C)CO2 | 6 | 40 | >100 | 40 | 20 | 5 | 7
7 | CCC(=O)OC[C@@]1(C)[C@H]2CC[C@@]3(CO3)[C@@H](C/C=C3/C(=O)OC[C@H]3OC(=O)/C=C/c3ccc(OC)c(OC)c3)[C@]2(C)CC[C@H]1OC(=O)CC | 2.5 | 2 | 7.5 | 0.4 | 2.5 | 3.5 | 1.5
8 | CC(=O)O[C@@H]1COC(=O)/C1=C/C[C@@H]1[C@@]2(CC[C@@H]3[C@](C)(CO)[C@H](O)CC[C@]31C)CO2 | 5 | 50 | 25 | 20 | 25 | 7 | 20
9 | CC(=O)OC[C@@]1(C)[C@H]2CC[C@@]3(CO3)[C@@H](C/C=C3/C(=O)OC[C@H]3OC(=O)CNC(=O)OC(C)(C)C)[C@]2(C)CC[C@H]1OC(C)=O | 8 | 4 | 4 | 3 | 7 | 20 | 4
10 | C[C@]1(CO)[C@H]2CC[C@@]3(CO3)[C@@H](C/C=C3/C(=O)OC[C@H]3O)[C@]2(C)CC[C@H]1O | 4 | 16 | 30 | 30 | 20 | 30 | 20
11 | CCC(=O)OC[C@@]1(C)[C@H]2CC[C@@]3(CO3)[C@@H](C/C=C3/C(=O)OC[C@H]3OC(=O)/C=C/c3ccccc3)[C@]2(C)CC[C@H]1OC(=O)CC | 10 | 6 | 20 | 2.5 | 4 | 3 | 0.08
12 | CCC(=O)OC[C@@]1(C)[C@H]2CC[C@@]3(CO3)[C@@H](C/C=C3/C(=O)OC[C@H]3OC(=O)CC)[C@]2(C)CC[C@H]1OC(=O)CC | 1.36 | 3 | 3 | 2 | 3 | – | –
13 | CC(=O)O[C@@H]1COC(=O)/C1=C/C[C@@H]1[C@@]2(CC[C@@H]3[C@](C)(CO)[C@H](OC(C)=O)CC[C@]31C)CO2 | 2.5 | 30 | 30 | 55 | 6.5 | 6 | 20
14 | C=C1CC[C@@H]2[C@](C)(CO)[C@H](O)CC[C@@]2(C)[C@@H]1/C=C/C1=CCOC1=O | – | 81 | >100 | >100 | 2 | – | >100
15 | C[C@]1(CO)[C@H]2CC[C@@]3(CO3)[C@@H](C/C=C3/C(=O)OC[C@H]3OC(=O)/C=C/c3ccccc3)[C@]2(C)CC[C@H]1O | 4 | 6 | 6 | 0.5 | 5.5 | 9 | 2
16 | CC(=O)OC[C@@]1(C)[C@H]2CCC3=COC(C4=CCOC4=O)C[C@H]3[C@]2(C)CC[C@H]1OC(C)=O (stereo partly drawn) | 40 | 30 | 50 | 40 | 40 | – | 40
17 | C=C1CC[C@@H]2[C@](C)(CO)[C@H](O)CC[C@@]2(C)[C@@H]1CCC1C(=O)OC[C@H]1O (stereo partly drawn) | >100 | 85 | >100 | >100 | 2 | – | –
18 | CCC(=O)OC[C@@]1(C)[C@H]2CC[C@@]3(CO3)[C@@H](C/C=C3/C(=O)OC[C@H]3OC(=O)/C=C/c3ccc4c(c3)OCO4)[C@]2(C)CC[C@H]1OC(=O)CC | 0.3 | 35 | 3 | 65 | 4 | 6 | 20
19 | CCC(=O)OC[C@@]1(C)[C@H]2CC[C@@]3(CO3)[C@@H](C/C=C3/C(=O)OC[C@H]3OC(=O)CNC(=O)OC(C)(C)C)[C@]2(C)CC[C@H]1OC(=O)CC | 15 | 20 | 4 | 30 | 20 | 4 | 15
20 | CC(=O)OC[C@@]1(C)[C@H]2CC[C@@]3(CO3)[C@@H](C/C=C3/C(=O)OC[C@H]3OC(C)=O)[C@]2(C)CC[C@H]1OC(C)=O | 25 | 2.5 | 15 | 1 | 15 | 0.25 | 5
21 | CCC(=O)O[C@@H]1COC(=O)/C1=C/C[C@@H]1[C@@]2(CC[C@@H]3[C@](C)(CO)[C@H](OC(=O)CC)CC[C@]31C)CO2 | 3 | 35 | 40 | 7 | 20 | 40 | 30
22 | CC(=O)OC[C@@]1(C)[C@H]2CC[C@@H](CO)[C@@H](C/C=C3/C(=O)OC[C@H]3OC(C)=O)[C@]2(C)CC[C@H]1OC(C)=O | 3 | 19 | 19 | 7 | 2 | – | –
23 | C=C1CC[C@@H]2[C@](C)(CO)[C@H](O)CC[C@@]2(C)[C@@H]1C/C=C1/C(=O)OC[C@H]1O [ANDROGRAPHOLIDE] | 15 | 3 | 17 | 10 | 20 | 30 | 15
24 | C=C1CC[C@@H]2[C@](C)(CO)[C@H](O)CC[C@@]2(C)[C@@H]1CCC1=CCOC1=O [DEOXYANDROGRAPHOLIDE] | 0.18 | >100 | >100 | 54 | 5 | – | –
